One assay concerns the target T1, N-SH3 D141A (Crkl) (Homo sapiens, UniProt P46109, D141A).
T1 construct: The construct encoding the N-SH3 domain of Crkl was subcloned in a pET28b+ plasmid vector; His-tag; made in house; host or cells: E. coli BL21
The assay is described as follows: Stopped-flow displacement, N-SH3 D141A:dansyl-C3G277–296 complex. The class given is binding. To be noted: Hepes 50 mM pH 7.0 + 20% w/v sucrose, 10 °C. How it is done: To further investigate this aspect, we resorted to performing displacement experiments, targeted to the direct calculation of microscopic dissociation rate constant koff. […] To test this and to slow down the diffusion of molecules, we repeated the experiment increasing the viscosity of the solution adding 20% w/v sucrose to the buffer Hepes 50 mM pH 7.0. Although the trace was satisfactorily fitted with a single-exponential equation, the koff calculated is 800 ± 30 s^−1, a value that is far beyond the resolution capability of the stopped-flow, a consistent part of the reaction occurring in the dead time of the instrument. Based on the calculated affinity of D141A variant for C3G in the absence of sucrose, this dramatic increase in koff might be accompanied by a strong increase in kon.
Kinetic binding experiments were performed on a single-mixing SX-18 stopped-flow instrument (Applied Photophysics), by mixing a constant concentration (0.5 μM) of C3G dansylated versus increasing concentrations of N-SH3 at 10 °C. Ionic strength dependence of wt N-SH3 was performed with concentrations ranging from 1 to 5 µM for 0 M NaCl condition and from 0.5 to 5 µM for 0.15 M, 0.3 M, 0.5 M and 1 M NaCl, buffer Hepes 50 mM pH 7.0. The excitation wavelength was 280 nm, and fluorescence was collected using a 455 nm cut-off filter. […]

For assay [1], the target named is dansylated C3G_(277–296) peptide. The assay can be described thus: stopped-flow displacement kinetics; preincubated complex of D141A N-SH3 (2 µM) and dansyl-C3G (10 µM) mixed with excess nondansylated C3G (50 µM); Hepes 50 mM pH 7.0 with 20% w/v sucrose.

Peptide text beside a SMILES is read from it. * marks the point of attachment. Dansyl = CN(C)c1cccc2c(S(=O)(=O)*)cccc12

T1 sequence (P46109 123-183 D141A limits assumed): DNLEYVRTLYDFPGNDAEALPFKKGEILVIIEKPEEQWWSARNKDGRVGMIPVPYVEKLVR

Consider `CC(C)C[C@H](NC(=O)[C@H](C)NC(=O)[C@@H]1CCCN1C(=O)[C@@H]1CCCN1C(=O)[C@@H]1CCCN1C(=O)[C@H](CO)NC(=O)[C@H](CC(N)=O)NC(=O)[C@H](CC(=O)O)NC(=O)[C@@H](NC(=O)[C@@H](NS(=O)(=O)c1cccc2c(N(C)C)cccc12)C(C)C)C(C)C)C(=O)N1CCC[C@H]1C(=O)N1CCC[C@H]1C(=O)N[C@@H](CCCCN)C(=O)N[C@@H](CCCCN)C(=O)N[C@@H](CCCNC(=N)N)C(=O)N[C@@H](CCC(N)=O)C(=O)N[C@@H](CO)C(=O)N[C@@H](C)C(=O)N1CCC[C@H]1C(=O)N[C@@H](CO)C(=O)O` [dansyl-C3G277–296] (Dansyl-VVDNSPPPALPPKKRQSAPS-OH), for which the koff on N-SH3 D141A (Crkl) came to 800 ± 30 s⁻¹.

“N-SH3 domain of Crkl, D141A variant (domain or fragment)” returned a dissociation rate constant (koff) in assay [1] of 800 s⁻¹.

The record behind these values is publication PMC8705818, “Experimental Characterization of the Interaction between the N-Terminal SH3 Domain of Crkl and C3G” (International Journal of Molecular Sciences, 2021).
